Experimental data reported in patent US10544156B2, “Hemi-synthetic trilobine analogs for use as a drug” (PIERRE FABRE MEDICAMENT, priority 2015, dated 2020).
Read-outs that look alike come from different tables or passages of the source.

Columns and labels:
[1] = target: T1, His-DNMT1 (182 kDa, human) (Homo sapiens, UniProt P26358); experiment: hDNMT1 assay ([methyl-3H] SAM Flashplate); format: biochemical; conditions: for EC50: read-out: EC50 (μM), hDNMT 1 inhibition; for inhibition at 10 µM: read-out: hDNMT 1 inhibition, Inhibition (%) 10 μM; for inhibition at 32 µM: read-out: hDNMT 1 inhibition, Inhibition (%) 32 μM
T1 construct: His; made in house
Procedure: His-DNMT1 (182 kDa, human) was cloned, expressed and purified as described (Halby et al. Chem Bio Chem 2012, 13, 157-165). The reaction was performed in a 10 μL total reaction volume in low volume NBS™ 384-well microplates (Corning), containing the tested compound (up to 1% DMSO), 1 μM of a SAM/[methyl-^3H] SAM (3TBq/mmol, PerkinElmer) mix in a ratio of 3-to-1 (isotopic dilution 1*:3), 0.3 μM of biotinylated hemimethylated DNA duplex (5′-GATmCGCmCGATGmCGmCGAATmCGmCGATmCGATGmCGAT-3′ and BIOT-5′-[…]-3′), and 90 nM of DNMT1 in methylation buffer (20 mM HEPES pH 7.2, 1 mM EDTA, 50 mM KCl, 25 μg/mL BSA). The reaction was incubated at 37° C. for 2 hours. 8 μL are then transferred into a streptavidin 96-well scintillant coated Flashplate™ (PerkinElmer) containing 190 μL of 20 μM SAH in 50 mM Tris-HCl pH 7.4. The Flashplate™ was agitated at room temperature for 1 hour and read in 200 μL of 50 mM Tris-HCl pH 7.4 on TopCount NXT (PerkinElmer). The percentage of inhibition is reported. The formula used to calculate the percentage of inhibition is [(X−Y)/X]×100, where X is the signal determined in the absence of the inhibitor and Y is the signal obtained in the presence of the inhibitor.

[2] = tested on: luciferase reporter gene under control of methylated CMV promoter in KG-1 cells; experiment: CMV-luc reexpression in KG-1 cells; format: cell-based, human; conditions: for Induction Fold (IF) of luciferase gene reporter in KG-1 CMV-Luc: 24 h, vs DMSO; for IF-24 h, KG1 CMV-Luc model: at 5 μM, 24 h (Table 5)
Procedure: KG-1 cells were stably transfected with the firefly luciferase reporter gene (luc+ from pGL3; Promega) under the control of the cytomegalovirus (CMV) promoter (from pEGFP-N1; Clontech Laboratories Inc.) partially methylated (50%). 20,000 cells per well were seeded in a 96-well plate. After 24 h incubation in the presence of the test compound or solvant (DMSO), the induction of the promoter was measured by quantification of the luciferase signal with the Brite-lite assay system (PerkinElmer) according to the manufacturer's protocol. The luminescence was measured on an EnVision multilabel plate reader (PerkinElmer), and the data are expressed as the fold induction as compared with the DMSO control. The mean of three experiments and the standard error is reported.

[3] = target: T2, human C-terminal DNMT3A (623-908a.a.) (Homo sapiens, UniProt Q9Y6K1); experiment: hDNMT3A assay (restriction-based fluorescence assay); format: biochemical; conditions: for inhibition at 10 µM: read-out: hDNMT 3A inhibition, Inhibition (%) 10 μM; for inhibition at 32 µM: read-out: hDNMT 3A inhibition, Inhibition (%) 32 μM
T2 construct: The human C-terminal DNMT3A (623-908a.a.); made in house
Excerpt: hDNMT3A enzyme inhibition was adapted from the restriction-based fluorescence assay protocol as described in the literature (Ceccaldi et al. Chem Bio Chem 2011, 12, 1337-1345). Briefly, a 5′-labelled biotin oligonucleotide is hybridized to its complementary strand labelled with 6-carboxyfluorescein at the 3′-end into a 384 well microplate (black Optiplates; Perkin Elmer) pre-coated with avidin. The duplex contains a unique CpG site overlapping with a restriction site of a methylation sensitive restriction enzyme. The human C-terminal DNMT3A (623-908a.a.), produced as described in (Gros et al. Nucl. Acids Res. 2013, 41(19):e185), was added in each well (200 ng/well) and mixed with the chemical compounds at desired concentrations and freshly prepared SAM (20 μM final concentration) to start the reaction in a total volume of 50 μL. After 1 hour incubation at 37° C. each well were washed three times with PBS, Tween-20 0.05%, NaCl (500 mM) and three more times with PBST. Specific fluorescent signals were detected with the methylation-sensitive restriction enzyme HpyCH4IV (NEB) as described and measured on a Perkin Elmer Envision detector. The percentage of inhibition is reported. The formula used to calculate the percentage of inhibition is [(X−Y)/X]×100, where X is the signal determined in the absence of the inhibitor and Y is the signal obtained in the presence of the inhibitor. The concentration at which 50% of efficacy of inhibition is observed (EC50) was determined by analysis of a concentration range of the tested compound in triplicates. The non-linear regression fittings with sigmoidal dose-response (variable slope) were performed with GraphPad Prism 4.03 (GraphPad Software).

[4] = tested on: HCT116 (colorectal cancer); experiment: Anti-proliferative activity (ATPLite); format: cell-based; conditions: Homo sapiens, HCT-116; daily treatment, cell viability by ATPLite; read-out: Antiproliferative activity: IC50 (μM) HCT116 (colorectal cancer)
Procedure: (§1) To measure the anti-proliferative properties of tested molecules, 2×10^4 cells are seeded at day 0 in a 96 wells plate. The compounds to be tested, stored at −20° C. as 10^−2 M stock solution in 100% DMSO, are freshly diluted on day 1 in the cell medium, before adding a dose range of 3.2 nM to 10 μM to the cells. Cells are treated everyday and cell viability assessed after 3 days or 7 days of treatment. The cell viability is assessed using the ATPLite kit from Perkin (ATPlite 1 Step Luminescence Assay System, ref 3016739), following the provider instructions. The raw data are analyzed with GraphPad Prism software (v4.03) to generate IC50 values corresponding to the compound concentrations giving 50% reduction in cell viability. The values presented are the mean results of at least two independent experiments. The standard errors are indicated.

KG-1 (leukemia) = experiment: Anti-proliferative activity (ATPLite); format: cell-based; conditions: Homo sapiens; daily treatment, cell viability by ATPLite; read-out: Antiproliferative activity: IC50 (μM) KG-1 (leukemia)
Procedure: as §1

[5] = concentration at which 50% of efficacy of inhibition is observed, read-out: EC50 (μM), hDNMT 3A inhibition
[6] = interval line below the EC50 of the same compound, read-out: EC50 (μM), range given

T2 sequence (Q9Y6K1 627-912 limits assumed): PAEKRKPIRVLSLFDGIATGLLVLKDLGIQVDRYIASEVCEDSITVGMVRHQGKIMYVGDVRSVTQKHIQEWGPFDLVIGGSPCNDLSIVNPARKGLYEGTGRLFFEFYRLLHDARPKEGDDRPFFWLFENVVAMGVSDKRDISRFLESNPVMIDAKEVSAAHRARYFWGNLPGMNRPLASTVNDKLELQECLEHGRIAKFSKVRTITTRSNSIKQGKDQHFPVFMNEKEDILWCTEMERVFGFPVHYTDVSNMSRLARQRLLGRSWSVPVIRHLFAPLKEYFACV
T1 sequence (P26358 whole entry): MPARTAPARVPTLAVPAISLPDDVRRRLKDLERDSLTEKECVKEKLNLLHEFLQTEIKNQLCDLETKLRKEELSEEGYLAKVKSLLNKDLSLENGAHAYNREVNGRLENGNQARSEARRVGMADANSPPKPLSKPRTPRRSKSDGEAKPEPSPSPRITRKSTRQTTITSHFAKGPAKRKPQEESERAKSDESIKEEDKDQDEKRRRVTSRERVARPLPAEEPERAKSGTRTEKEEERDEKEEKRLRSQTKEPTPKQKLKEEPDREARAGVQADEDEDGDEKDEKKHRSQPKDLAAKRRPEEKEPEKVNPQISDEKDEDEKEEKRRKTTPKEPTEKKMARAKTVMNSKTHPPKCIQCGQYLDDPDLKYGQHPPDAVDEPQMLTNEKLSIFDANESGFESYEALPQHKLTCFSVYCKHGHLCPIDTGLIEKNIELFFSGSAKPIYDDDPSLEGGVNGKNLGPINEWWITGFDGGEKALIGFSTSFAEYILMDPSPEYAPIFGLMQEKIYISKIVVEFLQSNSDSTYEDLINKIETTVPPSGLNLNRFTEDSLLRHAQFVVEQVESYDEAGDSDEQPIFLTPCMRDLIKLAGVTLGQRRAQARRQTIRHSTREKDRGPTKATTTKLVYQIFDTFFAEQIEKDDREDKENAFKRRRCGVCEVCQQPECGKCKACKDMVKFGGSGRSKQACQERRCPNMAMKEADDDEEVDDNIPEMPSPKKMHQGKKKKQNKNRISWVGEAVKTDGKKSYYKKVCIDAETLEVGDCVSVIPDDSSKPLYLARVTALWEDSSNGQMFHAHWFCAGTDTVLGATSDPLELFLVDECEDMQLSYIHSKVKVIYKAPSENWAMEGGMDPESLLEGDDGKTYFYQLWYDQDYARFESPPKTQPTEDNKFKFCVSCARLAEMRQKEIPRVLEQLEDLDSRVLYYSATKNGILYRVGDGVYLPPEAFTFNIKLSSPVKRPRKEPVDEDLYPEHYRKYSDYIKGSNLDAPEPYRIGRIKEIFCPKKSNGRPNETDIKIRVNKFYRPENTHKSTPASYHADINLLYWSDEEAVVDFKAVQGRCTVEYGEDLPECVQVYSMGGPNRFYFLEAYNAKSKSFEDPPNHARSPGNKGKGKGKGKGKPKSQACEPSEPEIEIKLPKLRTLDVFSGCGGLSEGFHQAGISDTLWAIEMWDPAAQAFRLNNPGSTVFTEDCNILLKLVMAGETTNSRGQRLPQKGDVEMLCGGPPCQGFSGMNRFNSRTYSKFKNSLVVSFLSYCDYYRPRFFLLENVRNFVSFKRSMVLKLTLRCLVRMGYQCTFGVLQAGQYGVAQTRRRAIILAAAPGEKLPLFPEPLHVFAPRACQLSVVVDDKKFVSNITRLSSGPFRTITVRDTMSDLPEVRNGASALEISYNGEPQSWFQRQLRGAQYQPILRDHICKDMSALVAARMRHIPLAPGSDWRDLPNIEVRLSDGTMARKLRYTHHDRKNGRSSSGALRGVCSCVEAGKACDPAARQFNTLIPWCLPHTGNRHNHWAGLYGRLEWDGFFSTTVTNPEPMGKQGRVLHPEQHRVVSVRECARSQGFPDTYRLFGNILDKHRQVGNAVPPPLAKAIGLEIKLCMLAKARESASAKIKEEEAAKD

Row | SMILES | EC50 [1] | inhibition at 10 µM [1] | inhibition at 32 µM [1] | Induction Fold (IF) of luciferase gene reporter in KG-1 CMV-Luc ([2]; 0.1 μM) | Induction Fold (IF) of luciferase gene reporter in KG-1 CMV-Luc ([2]; 0.32 μM) | Induction Fold (IF) of luciferase gene reporter in KG-1 CMV-Luc ([2]; 1 μM) | Induction Fold (IF) of luciferase gene reporter in KG-1 CMV-Luc ([2]; 3.2 μM) | Induction Fold (IF) of luciferase gene reporter in KG-1 CMV-Luc ([2]; 5 μM) | IF-24 h, KG1 CMV-Luc model [2] | EC50 [3, 5] | EC50 [3, 6] | inhibition at 10 µM [3] | inhibition at 32 µM [3] | IC50 [4] | IC50 (KG-1 (leukemia)) | Induction Fold (IF) of luciferase gene reporter in KG-1 CMV-Luc ([2]; 10 μM)
1 | CCN(CC)CCCNC(=S)N1CCc2cc3c4cc2[C@@H]1Cc1ccc(OC)c(c1)Oc1ccc(cc1)C[C@H]1c2c(cc(OC)c(c2O4)O3)CCN1C [Product 42] | 10.6 ± 2.8 µM | 38% | 100% | 1.2 ± 0.1 | 1.3 ± 0.1 | 1.5 ± 0.1 | 2.0 ± 0.2 | 2.3 ± 0.1 | 1.1 ± 0.6 | 0.64 µM | 0.47 to 0.86 µM | 98% | 98% | 0.5 ± 0.01 µM | 3.57 ± 0.04 µM | –
2 | CCN(CC)CCCNC(=O)N1CCc2cc3c4cc2[C@@H]1Cc1ccc(OC)c(c1)Oc1ccc(cc1)C[C@H]1c2c(cc(OC)c(c2O4)O3)CCN1C(=O)NCCCN(CC)CC [Product 48] | 14.6 ± 1.3 µM | 32% | 98% | 1.1 ± 0.1 | 1.2 ± 0.3 | 1.2 ± 0.1 | 1.2 ± 0.1 | 1.3 ± 0.1 | 1.1 | 1.93 µM | 1 to 3.72 µM | 82% | 98% | – | – | 2.3 ± 1.3
